Laboratory results: patent publication US20050085408A1, “Drugs ameliorating hypo-hdl cholesterolemia” (priority 2001, published 2005)
Where a SMILES comes first, the peptide text is derived from it. [ ]: non-standard residue; d: D form. Nle = CCCC[C@H](N)C(=O)O

Assays:
[1] = test system: ABCA1; test: Increase of the expression of ABCA1 in THP-1-derived macrophages (immunoblotting); format: cell-based, human; conditions: for intracellular expression of ABCA1 compared with control cells: THP-1 macrophages
Description: THP-1 cells (human leukemia cell, American Type Culture Collection) were cultured for 72 hours in a 10% FBS-RPMI1640 medium (Iwaki Glass Co., Ltd.), together with PMA (phorbol myristate acetate, Wako Pure Chemical Industries Ltd.) to obtain differentiated macrophages. The medium was replaced with 0.2% BSA-RPMI 1640 (Iwaki Glass Co., Ltd.) to which ALLN (50 μM, Sigma) was added, and examined for the time-course of intracellular ABCA1 expression according to the method illustrated herein below.
ALLN-treated cells and control cells cultivated in ALLN-free media were hypotonically disrupted in 5 mM Tris-HCl (pH8.5), and then centrifuged (650 g, for 5 minutes) to precipitate nuclear fractions. The supernatant was centrifuged at 105,000 g for 30 minutes to collect a total membrane fraction. The total membrane was dissolved in an aqueous solution containing 0.9M urea, 0.2% triton X-100 (Wako Pure Chemical Industries Ltd.), and 0.1% dithiothreitol (Wako Pure Chemical Industries Ltd.), followed by addition of 10% lithium dodecyl sulfate solution (Wako Pure Chemical Industries Ltd.) at a volume ratio of 1/4. The resultant was subjected to electrophoretic separation using 10% SDS-7% polyacrylamide gel (Wako Pure Chemical Industries Ltd.). The separated protein was fixed and transferred onto PVDF membrane (Bio-Rad). Each sample was then subjected to immunoblotting with rabbit anti-human ABCA1 antibody (self-made purification by an ordinary method) to quantitate expressed ABCA1 proteins. The obtained bands were read for density and size with Scion Image (image analysis software, Scion) to digitize the results.
In the same manner as in Assay Example 1, THP-1 cells were cultured in a medium to which leupeptin was added in place of ALLN, and compared with control cells non-treated with leupeptin.

[2] = test system: THP-1 cells; test: Acceleration of apoAI-dependent HDL formation (cholesterols and phospholipids transported into the medium); format: cell-based, human; conditions: apoAI & ALLN-added cells vs control group and apoAI-added group; FIG. 3
Text: In the same manner as in Arakawa et al., J. Lipid Res., 41, 1952-1962 (2000), THP-1 cells were used for quantitative analysis of cholesterols and phospholipids transported into the medium on the basis of apoAI-dependent HDL formation. ALLN-added cells were compared with those free of ALLN addition.

Compound	intracellular expression of ABCA1 compared with control cells ([1]; ALLN 50 μM in medium)	action of increasing the expression of ABCA1 ([1]; ALLN 50 μM, 24 hours after addition)	amount of apoAI-dependently transported cholesterols [2]	amount of apoAI-dependently transported phospholipids [2]	intracellular expression of ABCA1 compared with control cells ([1]; leupeptin in place of ALLN, FIG. 2 at 7 hours after addition)	action of elevating the expression of ABCA1 ([1]; leupeptin, 24 hours after addition to the medium)
CCCC[C@@H](C=O)NC(=O)[C@H](CC(C)C)NC(=O)[C@H](CC(C)C)NC(C)=O [ALLN, N-acetyl-leu-leu-norleucinal] (Ac-Leu-Leu-[Nle]-aldehyde)	remarkable intracellular expression of ABCA1	found even 24 hours after addition	increase	increase		
CC(=O)N[C@@H](CC(C)C)C(=O)N[C@@H](CC(C)C)C(=O)N[C@H](C=O)CCCNC(=N)N [leupeptin]					remarkable increase in the intracellular expression of ABCA1	found even 24 hours after addition
